How the values were obtained:
[1] = system: gp120 interaction with CD4; settings: Biorn et al. 2004; cited from earlier work
[2] = biological target: T1, YU2 gp120 (Human immunodeficiency virus type 1 group M subtype B, UniProt P35961); assay type: binding, HIV-1; settings: SPR
T1 construct: immobilized YU2 gp120
Procedure: Req. was calculated from 280 to 295 seconds in each concentration sensorgram and plotted against the concentration of the peptide.
Increasing concentrations of peptide were passed over an immobilized high density (5000 RU) surface. […] Buffer injections and controls were subtracted for all reported data. The equilibrium constant KD was calculated from the fit of direct binding to a steady state 1:1 binding model as a function of Req.

| Compound | inhibition of interaction of gp120 to CD4 (in words) [1] | direct interaction with YU2 gp120 (in words) [2] |
| --- | --- | --- |
| CC[C@H](C)[C@H](NC(=O)[C@@H](N)CCCNC(=N)N)C(=O)N[C@@H](CC(N)=O)C(=O)N[C@@H](CC(N)=O)C(=O)N[C@H](C(=O)N1CCC[C@H]1C(=O)N[C@@H](Cc1c[nH]c2ccccc12)C(=O)N[C@@H](CO)C(=O)N[C@@H](CCC(=O)O)C(=O)N[C@@H](C)C(=O)N[C@@H](CCSC)C(=O)N[C@@H](CCSC)C(=O)O)[C@@H](C)CC [Peptide 1] | micromolar affinity |  |
| RINNIAmpWSEAMM [Peptide 4] |  | no effect on gp120 |

Reference: patent publication US8092805B2, “Dual inhibitors of HIV-1 gp-120 interactions” (priority 2004, dated 2012)
